# Laboratory results reported in patent publication US5470737A, “Stably-transformed cells expressing human thiopurine methyltransferase” (priority 1994, dated 1995).
# Columns and labels:
# TPMT = target: T1, TPMT (Homo sapiens, UniProt P51580); experiment: Inhibition of TPMT, all sources of enzyme (summary in words); assay type: biochemical
# T1 construct: T84 cDNA transiently expressed in COS-1 cells, plus native human kidney 100,000×g supernatant, partially purified kidney Peak I and T84 cell enzyme
# T1 sequence (P51580 1-245): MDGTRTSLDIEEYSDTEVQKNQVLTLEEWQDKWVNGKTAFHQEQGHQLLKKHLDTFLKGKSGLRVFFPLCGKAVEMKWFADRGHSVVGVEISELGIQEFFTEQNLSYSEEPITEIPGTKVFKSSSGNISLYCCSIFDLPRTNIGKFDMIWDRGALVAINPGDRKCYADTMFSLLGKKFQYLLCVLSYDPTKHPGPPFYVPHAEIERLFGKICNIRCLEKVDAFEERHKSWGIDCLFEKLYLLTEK
# Text: (§1) Finally, the response of the TPMT expressed in COS-1 cells to a panel of methyltransferase inhibitors and ions was compared with that of TPMT activity in human kidney 100,000×g supernatant, partially purified human kidney Peak I TPMT and T84 cell TPMT (Table 3).
# As shown by the data in Table 3, the results were nearly identical for all sources of enzyme and each activity was inhibited by the TPMT reaction products, Ado-Hcy and 6-MMP. However, the enzyme was not affected by inhibitors of other methyltransferase enzymes.
# [1] = target: T2, TPMT expressed in COS-1 cells transfected with T84 TPMT cDNA (Homo sapiens, UniProt P51580); experiment: Panel of methyltransferase inhibitors and ions, COS-1 cells transfected with T84 TPMT cDNA; assay type: biochemical
# T2 construct: digested with SstI to excise the coding region, the 5'-untranslated region and a portion (ca. 600 nucleotides) of the 3'-untranslated region; expressed in transfected cells; host or cells: COS-1 (simian), vector P91023(B)
# T2 sequence (P51580 1-245): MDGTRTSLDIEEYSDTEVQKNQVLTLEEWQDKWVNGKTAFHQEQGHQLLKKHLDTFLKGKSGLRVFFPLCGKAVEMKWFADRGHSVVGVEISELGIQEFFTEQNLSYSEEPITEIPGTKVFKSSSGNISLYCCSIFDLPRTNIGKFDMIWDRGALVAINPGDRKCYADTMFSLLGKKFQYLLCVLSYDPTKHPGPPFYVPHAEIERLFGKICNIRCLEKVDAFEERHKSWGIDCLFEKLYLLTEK
# Method: TPMT activity in renal tissue was measured by the method of R. M. Weinshilboum et al., in Clin. Chim. Acta, 85, 323 (1978) as modified by L. C. Woodson et al., Biochem. Pharmacol., 32, 819 (1983) to assay the enzyme in human kidney preparations. […] Assay conditions for the measurement of TPMT in T84 human colon carcinoma cells and in COS-1 cells were identical with those used to measure the enzyme activity in human renal tissue. One unit of TPMT activity represented the formation of 1 nmol of 6-MMP per hr of incubation at 37° C.
# Simian COS-1 cells were then plated in 100-mm dishes at a density of 1.5-1.8×10^6 cells/dish in DMEM with 10% fetal calf serum, and were allowed to grow overnight. Three dishes of cells were used for each transfection. Purified "sense" plasmid vector (0.5 μg) was mixed with DEAE-dextran and DMEM, and the mixture was added to the cell culture dishes, following the procedures of J. H. McCutchan et al., J. Natl. Cancer Inst., 41, 351 (1988) and R. J. Kaufman et al., Mol. Cell. Biol., 9, 946 (1989). Control cells were treated with no DNA, with expression vector alone, or with constructs that contained the cDNA clone in an antisense orientation. After 1 hr, the DNA-DEAE-dextran solution was replaced for 2 min with DMEM that contained 10% dimethylsulfoxide, followed by incubation for 2 hr in 0.1 mM chloroquine in DMEM following the procedure of H. Luthman et al., Nucl. Acids Res., 11, 1295 (1983). Cells were then grown for 40-42 hr in DMEM with 10% fetal calf serum. The cells from each transfection were harvested and pooled, cell pellets were washed in 5 ml of PBS, and the cell pellets were homogenized for 30 sec in 2 ml of 5 mM potassium phosphate buffer, pH 7.5. Homogenates were centrifuged at 15,000×g for 15 min at 4° C., supernatants from that step were centrifuged at 100,000×g for 1 hr at 4° C., and 0.25 μl aliquots of 100,000×g supernatant preparations were then assayed for transient expression of TPMT enzymatic activity.
# [2] = target: T3, TPMT, human kidney 100,000×g supernatant (Homo sapiens, UniProt P51580); experiment: Panel of methyltransferase inhibitors and ions, human kidney 100,000×g supernatant; assay type: biochemical
# T3 construct: renal tissue was homogenized in 5 mM potassium phosphate buffer, pH 7.5, with a Polytron homogenizer, and a 100,000×g supernatant was prepared; from tissue; host or cells: human kidney (renal tissue)
# T3 sequence (P51580 1-245): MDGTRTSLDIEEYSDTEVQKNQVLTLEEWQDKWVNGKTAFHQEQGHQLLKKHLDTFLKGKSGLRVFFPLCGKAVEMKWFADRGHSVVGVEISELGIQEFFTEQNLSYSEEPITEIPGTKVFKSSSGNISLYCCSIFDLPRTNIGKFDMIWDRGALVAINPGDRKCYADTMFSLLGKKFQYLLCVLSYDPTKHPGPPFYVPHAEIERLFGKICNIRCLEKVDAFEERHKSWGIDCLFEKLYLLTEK
# Method: Renal tissue was obtained either during autopsy or from patients undergoing clinically indicated nephrectomies. Hepatic tissue was obtained from patients who underwent clinically indicated partial hepatectomies for the removal of primary or metastatic hepatic tumors. All tissue was obtained under guidelines approved by the Mayo Clinic Institutional Review Board. Macroscopically normal tissue was stored at -80° C., conditions under which TPMT activity is stable (C. L. Szumlanski et al., Pharmacogenetics, 2, 148 (1992); J. A. Van Loon et al., Drug Met. Disposit., 18, 632 (1990)). Prior to enzyme purification, renal tissue was homogenized in 5 mM potassium phosphate buffer, pH 7.5, with a Polytron homogenizer, and a 100,000×g supernatant was prepared as described by L. C. Woodson et al., Biochem. Pharmacol., 32, 819 (1983). Amino acid sequence information was obtained with TPMT purified from human renal tissue--a tissue with a high specific activity for the enzyme.
# (§2) TPMT activity in renal tissue was measured by the method of R. M. Weinshilboum et al., in Clin. Chim. Acta, 85, 323 (1978) as modified by L. C. Woodson et al., Biochem. Pharmacol., 32, 819 (1983) to assay the enzyme in human kidney preparations. […] Ado-Met as the methyl donor. Assay conditions for the measurement of TPMT in T84 human colon carcinoma cells and in COS-1 cells were identical with those used to measure the enzyme activity in human renal tissue. One unit of TPMT activity represented the formation of 1 nmol of 6-MMP per hr of incubation at 37° C.
# as §1
# human kidney TPMT Peak I = target: T4, human kidney TPMT Peak I (Homo sapiens, UniProt P51580); experiment: Panel of methyltransferase inhibitors and ions, human kidney Peak I TPMT; assay type: biochemical
# T4 construct: Human renal tissue contains two isoforms of TPMT, Peak I and Peak II, that can be separated by DEAE ion exchange chromatography; from tissue; host or cells: human kidney, DEAE Peak I, gel filtration
# T4 sequence (P51580 1-245): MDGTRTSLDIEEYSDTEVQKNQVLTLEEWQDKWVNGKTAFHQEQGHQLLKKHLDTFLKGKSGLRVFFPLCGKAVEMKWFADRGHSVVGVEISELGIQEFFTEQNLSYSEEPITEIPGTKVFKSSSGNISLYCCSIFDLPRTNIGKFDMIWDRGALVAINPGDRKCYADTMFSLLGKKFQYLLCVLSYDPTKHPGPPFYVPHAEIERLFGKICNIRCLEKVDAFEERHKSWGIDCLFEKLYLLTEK
# Text: Human renal tissue contains two isoforms of TPMT, Peak I and Peak II, that can be separated by DEAE ion exchange chromatography as reported by J. A. Van Loon et al., Biochem. Genet., 20, 637 (1982). The two isoforms were separated by DEAE ion exchange chromatography, and the Peak I enzyme was then purified by gel filtration chromatography performed with Sephadex G-100 superfine as described by J. A. Van Loon et al., cited above. In some experiments, hydroxylapatite chromatography performed as described by J. A. Van Loon et al., in Biochem. Pharmacol., 44, 775 (1992) was added as a third purification step.
# as §2, §1
# T84 cell TPMT = target: T5, T84 cell TPMT (Homo sapiens, UniProt P51580); experiment: Panel of methyltransferase inhibitors and ions, T84 cell 100,000×g supernatant; assay type: biochemical
# T5 construct: Cytosol from T84 cells did contain TPMT enzymatic activity; host or cells: T84 human colon carcinoma cells
# T5 sequence (P51580 1-245): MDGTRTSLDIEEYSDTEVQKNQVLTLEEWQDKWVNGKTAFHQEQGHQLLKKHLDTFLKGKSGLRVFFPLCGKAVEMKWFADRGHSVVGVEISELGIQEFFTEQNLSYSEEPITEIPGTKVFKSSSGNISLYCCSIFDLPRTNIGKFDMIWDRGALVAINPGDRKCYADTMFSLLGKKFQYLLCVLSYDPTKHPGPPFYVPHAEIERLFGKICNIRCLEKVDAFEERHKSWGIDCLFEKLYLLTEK
# Method: as §2
# T84 human colon carcinoma cells (American Type Culture Collection, Rockville, Md.) were grown to confluence in an equal volume mixture of Dulbecco's modified Eagle's medium (DMEM) and Ham's F12 media with 5% fetal calf serum. The cells were then harvested, cell pellets were washed in phosphate buffered saline (PBS), and the pellets were homogenized for 30 sec in 1 ml of 5 mM potassium phosphate buffer, pH 7.5, with a Polytron homogenizer. Homogenates of the cells were centrifuged at 100,000×g for 1 hr at 4° C., and the supernatant was used to assay TPMT activity and to determine selected biochemical properties of the enzyme.
# as §1
# [3] = system: catechol O-methyltransferase (COMT); details: cited from earlier work
# [4] = system: thiol methyltransferase (TMT); details: cited from earlier work
# [5] = read-out: Activity Remaining, %
compound,measurement,setting,value
"Nc1ncnc2c1ncn2[C@@H]1O[C@H](CSCC[C@H](N)C(=O)O)[C@@H](O)[C@H]1O [Ado-Hcy, S-adenosyl-L-homocysteine]",effect on TPMT activity (in words),TPMT,inhibited
same,remaining activity at 100 µM,[1]; [5],5%
same,remaining activity at 100 µM,[2]; [5],5%
same,remaining activity at 100 µM,human kidney TPMT Peak I; [5],5%
same,remaining activity at 100 µM,T84 cell TPMT; [5],5%
[Ca+2].[Cl-].[Cl-] [CaCl2],effect on TPMT activity (in words),TPMT,not affected
same,"Activity Remaining, %","[1]; COS-1 cells transfected with T84 TPMT cDNA, 1 mM",96%
same,"Activity Remaining, %","[2]; human kidney 100,000×g supernatant, 1 mM",96%
same,"Activity Remaining, %","human kidney TPMT Peak I; human kidney TPMT Peak I, 1 mM",97%
same,"Activity Remaining, %","T84 cell TPMT; T84 cell 100,000×g supernatant, 1 mM",95%
same,inhibition of catechol O-methyltransferase (in words),[3],an inhibitor of catechol O-methyltransferase
"CC(N)c1cccc(Cl)c1Cl (stereo not drawn) [DCMB, 2,3-dichloro-α-methylbenzylamine]",effect on TPMT activity (in words),TPMT,not affected
same,remaining activity at 1000 µM,[1]; [5],95%
same,remaining activity at 1000 µM,[2]; [5],95%
same,inhibition of thiol methyltransferase (in words),[4],inhibitors of thiol methyltransferase
same,remaining activity at 1000 µM,human kidney TPMT Peak I; [5],95%
same,remaining activity at 1000 µM,T84 cell TPMT; [5],99%
CCCC(C(=O)OCCN(CC)CC)(c1ccccc1)c1ccccc1 [SKF-525A],effect on TPMT activity (in words),TPMT,not affected
same,remaining activity at 500 µM,"[1]; COS-1 cells transfected with T84 TPMT cDNA, 0.5 mM",101%
same,remaining activity at 500 µM,"[2]; human kidney 100,000×g supernatant, 0.5 mM",107%
same,inhibition of thiol methyltransferase (in words),[4],inhibitors of thiol methyltransferase
same,remaining activity at 500 µM,"human kidney TPMT Peak I; human kidney TPMT Peak I, 0.5 mM",98%
same,remaining activity at 500 µM,"T84 cell TPMT; T84 cell 100,000×g supernatant, 0.5 mM",102%
